“Also recorded” adds a separate entry of the source. Where two headings read alike, the source gives them in different places.
Experiments:
Format in all cases: cell-based
[1] = system: MDA-MB-231 breast cancer cells; test: transwell migration assay, MDA-MB-231; details: for inhibition at 10 µM: MDA-MB-231, MDA-MB-231, 10 μM, read-out: inhibition of cell migration; for IC50: transwell migration of MDA-MB-231 cells, read-out: IC50 (anti-migration)
Description: (§1) To determine if these analogs have anti-migration and anti-invasion activities in different cancer cell lines, transwell migration assays were performed using MDA-MB-231 breast cancer cells (FIG. 3) and HeLa cells (FIG. 5) for all synthetic analogs. […] Next, clonogenic assays were performed on the breast cancer cells treated with the compounds to rule out any indirect effect on cell migration due to cytotoxicity (FIG. 4). MDA-MB-231 cells were allowed to grow for 14 days in six-well plates in the presence or absence of the synthetic compounds at 10 μM.
To determine the effects of the synthesized mackroketone analogs on cancer cell migration, we performed transwell migration assay on each compound using an invasive and metastatic breast cancer cell line, MDA-MB-231. When cells were seeded at a density of 2.5×10^4 in media free of serum in the upper chamber but containing 5% FBS in the lower chamber, their ability to migrate in the presence and absence of 10 μM analogs were measured by counting the total number of cells in the lower chamber after 24 hrs.

[2] = system: MDA-MB-231 breast cancer cells; test: clonogenic assay (colony formation), MDA-MB-231; details: for activity at 10 µM / inhibition at 10 µM: Homo sapiens, 336 h; for activity at 10 µM: read-out: Effect on cell proliferation (colony formation) (% of vehicle control); for inhibition at 10 µM / cytotoxicity (in words): MDA-MB-231, 10 μM, two weeks
Description: as §1
To rule out any indirect effect on cell migration due to cytotoxicity, clonogenic assays were performed on the breast cancer cells treated with the compounds. MDA-MB-231 cells were allowed to grow for 14 days in six-well plates in the presence or absence of the synthetic compounds at 10 μM. […] For example, analog 3g blocked both cell migration (81.4%) and colony formation (42.7%). For these analogs cytotoxity may have partially contributed to their overall anti-migration effect. The cell toxicity data for all analogs are listed in Table 1 along with anti-migration data for comparison.

HeLa cells [3] = test: colony formation, HeLa
From the text: (§2) Based on the potent effects of synthetic thiazole analogs in blocking migration of MDA-MB-231 cells, ten analogs with high anti-migration activity but low or negligible cytotoxicity were selected to test their anti-migration activity in another metastatic cell line, HeLa. […] On the other hand, the analog 5i was not toxic to 231 cells, but it suppressed the clonogenic capability of HeLa cells by 45%. […] Thus 5k may be further evaluated for its potential as an anti-migration and anti-metastatic agent.

HeLa cells [4] = test: transwell migration, HeLa; details: Homo sapiens
Description: as §1, §2

[5] = system: A549 non small cell lung cancer cells; test: migration assay, A549; details: A549, 10 μM
[6] = system: MDA-MB-231 breast cancer cells; test: matrigel invasion assay, MDA-MB-231; details: MDA-MB-231, matrigel
From the text: To determine if the synthetic thiazole analogs block invasion of metastatic cancer cells we performed matrigel invasion assays of MDA-MB-231 cells treated with 10 selected analogs.

[7] = system: f-actin in membrane protrusions of MDA-MB-231 cells; test: f-actin staining of actin-rich membrane protrusions (fluorescent microscopy); details: MDA-MB-231, 10 μM, serum stimulated 2 hours; p<0.01
From the text: An essential component of migration is protrusion of the cell membrane, which is driven by actin polymerization. […] See Chen, L.; Yang. S.; Jakoncic, J.; Zhang, J. J.; Huang, X. Y. Migrastatin analogues target fascin to block tumour metastasis. Nature 2010; 464:1062-1066. Erratum in: Nature. 2011; 476:240; Hashimoto, Y., D. J. Kim, and J. C. Adams. The roles of fascins in health and disease. J. Pathol. 2011; 224:289-300; and Jayo, A., and M. Parsons. Fascin: a key regulator of cytoskeletal dynamics. Int. J. Biochem. Cell Biol. 2010; 42:1614-1617. […] See Chen, 2010. Thus, we tested the hypothesis that compound 5k interferes with f-actin in membrane protrusions associated with cell motility. MDA-MB-231 cells were serum starved −/+10 μM 5k, then stimulated with serum for 2 hours to induce actin-rich membrane protrusions, which were analyzed by fluorescent microscopy.

[8] = system: fascin in MDA-MB-231 cells; test: fascin localization by immunofluorescence microscopy
From the text: Co-localization of f-actin and fascin appears as white pixels.
To further probe for a possible role of fascin in the reduction of actin-rich membrane protrusions, we determined the localization of fascin by immunofluorescence microscopy.

[9] = MDA-MB-231, 10 μM analogs, 14 days

Compound | IC50 ([1]; Homo sapiens) [nM] | activity at 10 µM [2, 9] [%] | cytotoxicity (in words) [2] | further results
CCCCCCCCCCCC(=O)Nc1nc(-c2ccccc2)cs1 [Compound 3n, N-(4-Phenylthiazol-2-yl)dodecanamide] | 1010 | 71.5 | no apparent cell toxicity | inhibition at 10 µM ([1]; Homo sapiens): > 50%; inhibition at 10 µM [2]: 30%; cytotoxicity (in words) (HeLa cells [3]): no apparent cytotoxicity
CCn1c(-c2ccccc2)csc1=NC(=O)c1cccs1 [Compound 5i, N-(3-Ethyl-4-phenylthiazol-2(3H)-yliene)thiophene-2-carboxamide] | – | – | not toxic | IC50 [1]: 2080 nM; Effect on cell proliferation (colony formation) (% of vehicle control) [2, 9]: 97.7%; suppression of clonogenic capability (HeLa cells [3]): 45%
O=C(Nc1nc(-c2ccccc2)cs1)c1cccs1 [Compound 3a, N-(4-Phenylthiazol-2-yl)thiophene-2-carboxamide] | 2490 | 85.9 | – | –
O=C(Nc1nc(-c2ccccc2)cs1)c1ccncc1 [Compound 3i, N-(4-Phenylthiazol-2-yl)isonicotinamide] | 2870 | 95.5 | – | –
O=C(Nc1nc(-c2ccccc2)cs1)c1ccccc1 [Compound 3j, N-(4-Phenylthiazol-2-yl)benzamide] | 1290 | 105 | – | –
COc1ccc(C(=O)Nc2nc(-c3ccccc3)cs2)cc1OC [Compound 3g, 3,4-Dimethoxy-N-(4-phenylthiazol-2-yl)benzamide] | – | 57.3 | – | inhibition at 10 µM ([1]; Homo sapiens): > 80%; inhibition at 10 µM [2]: 42.7%
Cc1ccc(-c2csc(NC(=O)c3cccs3)n2)c(C)c1 [Compound 3f, N-(4-(2,4-Dimethylphenyl)thiazol-2-yl)thiophene-2-carboxamide] | – | 67.5 | – | –
Cc1ccc(-c2csc(N)n2)c(C)c1 [Compound 2b, 2-Amino-4-(2,4-dimethylphenyl)thiazole] | – | 111 | no apparent cell toxicity | inhibition at 10 µM ([1]; Homo sapiens): > 50%
O=C(Nc1nc(-c2ccccc2)cs1)C1CCCCC1 [Compound 3l, N-(4-Phenylthiazol-2-yl)cyclohexanecarboxamide] | – | 103 | – | –
Cn1c(-c2ccccc2)cs/c1=N/C(=O)c1ccco1 [Compound 5b, N-(3-Methyl-4-phenylthiazol-2(3H)-yliene)furan-2-carboxamide] | – | 107 | – | –
O=C(Nc1nc(-c2ccccc2)cs1)c1ccc(Br)cc1 [Compound 3d, 4-Bromo-N-(4-phenylthiazol-2-yl)benzamide] | – | 98.6 | – | –

Further lines, with some results ahead:

IC50 ([1]; Homo sapiens) [nM] | Compound | activity at 10 µM [2, 9] [%] | cytotoxicity (in words) [2] | further results
189 | Cn1c(-c2ccccc2)cs/c1=N/C(=O)c1ccccc1 [Compound 5j, N-(3-Methyl-4-phenylthiazol-2(3H)-yliene)benzamide] | 25.2 | strong inhibitor of cell proliferation | inhibition at 10 µM [2]: 75%; cytotoxicity (in words) (HeLa cells [3]): strong inhibitor of cell proliferation
366 | CN(C(=O)c1ccccc1)c1nc(-c2ccccc2)cs1 [Compound 4e, N-Methyl-N-(4-phenylthiazol-2-yl)benzamide] | 123 | no apparent cell toxicity | inhibition at 10 µM ([1]; Homo sapiens): > 50%
839 | Cc1ccc(-c2csc(NC(=O)c3ccccc3)n2)c(C)c1 [Compound 3o, N-(4-(2,4-dimethylphenyl)thiazol-2-yl)benzamide] | 85 | – | –
1120 | Cn1c(-c2ccccc2)csc1=NC(=O)c1ccc(Cl)cc1 [Compound 5c, 4-Chloro-N-(3-methyl-4-phenylthiazol-2(3H)-ylidene)benzamide] | 98.2 | – | –
176 | Cc1ccc(-c2cs/c(=N/C(=O)c3ccccc3)n2C)c(C)c1 [Compound 5k, N-(4-(2,4-Dimethylphenyl)-3-methylthiazol-2(3H)-yliene)-benzamide] | 121 | no apparent cell toxicity; also recorded: no apparent cytotoxity | inhibition at 10 µM (HeLa cells [4]): > 85%; cytotoxicity (in words) (HeLa cells [3]): no apparent cytotoxity; loss of migratory capacity [5]: ~80%; blocking cell invasion (in words) [6]: most potent compound in blocking cell invasion; reduction in f-actin intensity [7]: 55%; localization of fascin in actin-rich membrane regions (in words) [8]: notably missing from the actin-rich membrane regions
